The record followed here is US10071995B2, “Substituted oxopyridine derivatives” (BAYER PHARMA AKTIENGESELLSCHAFT, priority 2014, dated 2018).

One test concerns the target human factor XIa (Homo sapiens (Human), UniProt P03951). Put plainly: Measurement of FXIa inhibition (fluorogenic peptide substrate). Format: biochemical. The note with it: factor XIa from Kordia, substrate Boc-Glu(OBzl)-Ala-Arg-AMC, 22° C., 30 min. The procedure:
The factor XIa inhibition of the substances according to the invention is determined using a biochemical test system which utilizes the reaction of a peptidic factor XIa substrate to determine the enzymatic activity of human factor XIa. Here, factor XIa cleaves from the peptic factor XIa substrate the C-terminal aminomethylcoumarin (AMC), the fluorescence of which is measured. The determinations are carried out in microtitre plates.
1 μl of the diluted substance solutions is placed into each of the wells of white microtitre plates from Greiner (384 wells). […] After 15 min of incubation, the enzyme reaction is started by addition of 20 μl of the factor XIa substrate Boc-Glu(OBzl)-Ala-Arg-AMC dissolved in assay buffer (10 μM in assay buffer) from Bachem, the mixture is incubated at room temperature (22° C.) for 30 min and fluorescence is then measured (excitation: 360 nm, emission: 460 nm). The measured emissions of the test batches with test substance are compared to those of control batches without test substance (only dimethyl sulphoxide instead of test substance in dimethyl sulphoxide), and IC50 values are calculated from the concentration/activity relationships.

In a further test the target is human plasma kallikrein (Homo sapiens (Human), UniProt P03952). The test can be described thus: Determination of the plasma kallikrein activity (fluorogenic peptide substrate). The format is biochemical. The conditions noted are these: plasma kallikrein from Kordia, substrate H-Pro-Phe-Arg-AMC, 22° C., 30 min. The procedure: To determine the plasma kallikrein inhibition of the substances according to the invention, a biochemical test system is used which utilizes the reaction of a peptidic plasma kallikrein substrate to determine the enzymatic activity of human plasma kallikrein. Here, plasma kallikrein cleaves from the peptic plasma kallikrein substrate the C-terminal aminomethylcoumarin (AMC), the fluorescence of which is measured. The determinations are carried out in microtitre plates.
human plasma kallikrein, sequence (P03952 391-638): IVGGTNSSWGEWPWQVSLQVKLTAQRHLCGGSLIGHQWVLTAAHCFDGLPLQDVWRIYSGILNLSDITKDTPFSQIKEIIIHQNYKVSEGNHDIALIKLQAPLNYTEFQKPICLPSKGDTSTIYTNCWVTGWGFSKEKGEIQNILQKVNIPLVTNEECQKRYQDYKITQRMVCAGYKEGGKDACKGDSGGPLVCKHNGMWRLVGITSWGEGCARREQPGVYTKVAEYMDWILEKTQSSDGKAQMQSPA
human plasma kallikrein, sequence (P03952 20-390 partner): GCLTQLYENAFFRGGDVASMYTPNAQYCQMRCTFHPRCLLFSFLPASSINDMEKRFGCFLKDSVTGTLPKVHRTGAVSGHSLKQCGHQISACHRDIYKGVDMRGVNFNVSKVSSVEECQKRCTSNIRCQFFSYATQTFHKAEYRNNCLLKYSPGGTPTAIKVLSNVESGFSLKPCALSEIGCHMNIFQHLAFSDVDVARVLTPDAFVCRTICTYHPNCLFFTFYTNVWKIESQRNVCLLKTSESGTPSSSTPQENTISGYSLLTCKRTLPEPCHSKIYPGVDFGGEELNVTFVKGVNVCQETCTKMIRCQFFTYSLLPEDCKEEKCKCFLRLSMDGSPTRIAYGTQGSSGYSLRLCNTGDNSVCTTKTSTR
1 μl of the diluted substance solutions is placed into each of the wells of white microtitre plates from Greiner (384 wells). 20 μl of assay buffer (50 mM Tris/HCl pH 7.4; 100 mM sodium chloride solution; 5 mM of calcium chloride solution; 0.1% of bovine serum albumin) and 20 μl of plasma kallikrein from Kordia (0.6 nM in assay buffer) are then added successively. After 15 min of incubation, the enzyme reaction is started by addition of 20 μl of the substrate H-Pro-Phe-Arg-AMC dissolved in assay buffer (10 μM in assay buffer) from Bachem, the mixture is incubated at room temperature (22° C.) for 30 min and fluorescence is then measured (excitation: 360 nm, emission: 460 nm). The measured emissions of the test batches with test substance are compared to those of control batches without test substance (only dimethyl sulphoxide instead of test substance in dimethyl sulphoxide), and IC50 values are calculated from the concentration/activity relationships.

human factor XIa, sequence (P03951 388-625): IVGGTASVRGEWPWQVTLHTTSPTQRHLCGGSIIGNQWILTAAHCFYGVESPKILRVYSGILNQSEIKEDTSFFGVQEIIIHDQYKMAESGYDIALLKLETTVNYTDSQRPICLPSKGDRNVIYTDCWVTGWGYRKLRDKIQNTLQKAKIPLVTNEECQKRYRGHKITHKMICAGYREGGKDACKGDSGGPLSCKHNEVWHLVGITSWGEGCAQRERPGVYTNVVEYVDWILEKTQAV
human factor XIa, sequence (P03951 19-387 partner): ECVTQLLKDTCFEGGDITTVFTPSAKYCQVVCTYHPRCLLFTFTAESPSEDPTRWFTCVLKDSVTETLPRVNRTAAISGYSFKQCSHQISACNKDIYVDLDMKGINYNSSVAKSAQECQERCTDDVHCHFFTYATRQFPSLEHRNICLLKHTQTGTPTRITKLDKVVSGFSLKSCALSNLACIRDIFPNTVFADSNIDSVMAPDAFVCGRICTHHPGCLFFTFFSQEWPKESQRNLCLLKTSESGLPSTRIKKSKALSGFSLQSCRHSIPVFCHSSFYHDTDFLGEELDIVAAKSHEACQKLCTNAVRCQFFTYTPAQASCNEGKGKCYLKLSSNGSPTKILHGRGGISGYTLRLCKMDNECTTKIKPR

By IC50 is commonly meant the concentration at which inhibition is half-maximal. `COc1cn(C(Cc2ccncc2)C(=O)Nc2cc(F)c(C(N)=O)s2)c(=O)cc1-c1cc(Cl)ccc1C#N` (racemic) [Example 4, 5-({2-[4-(5-Chloro-2-cyanophenyl)-5-methoxy-2-oxopyridin-1(2H)-yl]-3-(pyridin-4-yl)propanoyl}-amino)-3-fluorothiophene-2-carboxamide (racemate)]: the figures for the IC50 against human factor XIa and against human plasma kallikrein were 29 nM and 36 nM, respectively.

On to `COc1cn(C(Cc2ccccn2)C(=O)Nc2ccc(C(=O)O)s2)c(=O)cc1-c1cc(Cl)ccc1C#N` (racemic) [Example 18, 5-({2-[4-(5-Chloro-2-cyanophenyl)-5-methoxy-2-oxopyridin-1(2H)-yl]-3-(pyridin-2-yl)propanoyl}-amino)thiophene-2-carboxylic acid (racemate)], for which the IC50 on human factor XIa stood at 2.6 nM.

`CNC(=O)c1ccc(NC(=O)C(Cc2cnco2)n2cc(OC)c(-c3cc(Cl)ccc3C#N)cc2=O)s1` (racemic) [Example 17, 5-({2-[4-(5-Chloro-2-cyanophenyl)-5-methoxy-2-oxopyridin-1(2H)-yl]-3-(1,3-oxazol-5-yl)-propanoyl}amino)-N-methylthiophene-2-carboxamide (racemate)] registered an IC50 against human factor XIa of 6.2 nM. This IC50 lies about 2.4-fold higher than the previous one.

As for `CNC(=O)c1ccc(NC(=O)C(Cc2ccn(C)n2)n2cc(OC)c(-c3cc(Cl)ccc3C#N)cc2=O)s1` (single isomer, unassigned; enantiomer 1) [Example 16, 5-({2-[4-(5 -Chloro-2-cyanophenyl)-5-methoxy-2-oxopyridin-1(2H)-yl]-3-(1-methyl-1H-pyrazol-3-yl)propanoyl}amino)-N-methylthiophene-2-carboxamide (enantiomer 1)], the IC50 against human factor XIa was determined as 2.8 nM; on human plasma kallikrein, 1.5 nM.

Regarding `COCCC(C(=O)Nc1cc(F)c(C(N)=O)s1)n1cc(OC)c(-c2cc(Cl)ccc2C#N)cc1=O` (single isomer, unassigned; enantiomer 1) [Example 10, 5-({2-[4-(5-Chloro-2-cyanophenyl)-5-methoxy-2-oxopyridin-1(2H)-yl]-4-methoxybutanoyl}-amino)-3-fluorothiophene-2-carboxamide (enantiomer 1)], the IC50 on human factor XIa was determined as 27 nM; against human plasma kallikrein it was 47 nM.

With `COCCC(C(=O)Nc1cc(F)c(C(N)=O)s1)n1cc(OC)c(-c2cc(Cl)ccc2C#N)cc1=O` (racemic) [Example 9, 5-({2-[4-(5-Chloro-2-cyanophenyl)-5-methoxy-2-oxopyridin-1(2H)-yl]-4-methoxybutanoyl}amino)-3-fluorothiophene-2-carboxamide (racemate)], the values for the IC50 at human factor XIa and on human plasma kallikrein were 54 nM and 100 nM, respectively.

As for `COCCC(C(=O)Nc1ccc(C(=O)O)s1)n1cc(Cl)c(-c2cc(Cl)ccc2C#N)cc1=O` (racemic) [Example 19, 5-({2-[5-Chloro-4-(5-chloro-2-cyanophenyl)-2-oxopyridin-1(2H)-yl]-4-methoxybutanoyl}amino)-thiophene-2-carboxylic acid (racemate)], the IC50 came to 6.9 nM against human factor XIa and 47 nM at human plasma kallikrein.

`COCCC(C(=O)Nc1ccc(C(=O)O)s1)n1cc(OC)c(-c2cc(Cl)ccc2C#N)cc1=O` (racemic) [Example 7, 5-({2-[4-(5-Chloro-2-cyanophenyl)-5-methoxy-2-oxopyridin-1(2H)-yl]-4-methoxybutanoyl}amino)-thiophene-2-carboxylic acid (racemate)] displayed an IC50 against human factor XIa of 3 nM. This lies in the single-digit nanomolar range.

Take `COc1cn(C(Cc2ccccn2)C(=O)Nc2cc(F)c(C(N)=O)s2)c(=O)cc1-c1cc(Cl)ccc1F` (racemic) [Example 6, 5-({2-[4-(5-Chloro-2-fluorophenyl)-5-methoxy-2-oxopyridin-1(2H)-yl]-3-(pyridin-2-yl)propanoyl}-amino)-3-fluorothiophene-2-carboxamide (racemate)]: the IC50 at human factor XIa was 1200 nM; against human plasma kallikrein, more than 10000 nM.

Take `COCCC(C(=O)Nc1ccc(C(N)=O)s1)n1cc(Cl)c(-c2cc(Cl)ccc2C#N)cc1=O` (racemic) [Example 2, 5-({2-[5-Chloro-4-(5-chloro-2-cyanophenyl)-2-oxopyridin-1(2H)-yl]-4-methoxybutanoyl}amino)-thiophene-2-carboxamide (racemate)]: the IC50 at human factor XIa was determined as 26 nM; at human plasma kallikrein, 28 nM.

As to `CNC(=O)c1ccc(NC(=O)C(Cc2ccn(C)n2)n2cc(OC)c(-c3cc(Cl)ccc3C#N)cc2=O)s1` (racemic) [Example 15, 5-({2-[4-(5-Chloro-2-cyanophenyl)-5-methoxy-2-oxopyridin-1(2H)-yl]-3-(1-methyl-1H-pyrazol-3-yl)propanoyl}amino)-N-methylthiophene-2-carboxamide (racemate)], the IC50 on human factor XIa came out at 5.4 nM; against human plasma kallikrein, 1.6 nM.

Consider `COc1cn(C(Cc2ccccn2)C(=O)Nc2cc(F)c(C(N)=O)s2)c(=O)cc1-c1cc(Cl)ccc1C#N` (racemic) [Example 3, 5-({2-[4-(5-Chloro-2-cyanophenyl)-5-methoxy-2-oxopyridin-1(2H)-yl]-3-(pyridin-2-yl)propanoyl}-amino)-3-fluorothiophene-2-carboxamide (racemate)], for which, at human factor XIa, the IC50 amounted to 34 nM. In other words, the double-digit nanomolar range.
